Assay results taken from US20240269157A1, “COMPOSITIONS AND METHODS FOR OVERCOMING MICROENVIRONMENT-MEDIATED RESISTANCE VIA E-SELECTIN TARGETING” (GLYCOMIMETICS, INC., priority 2021, published 2024).

How the values were obtained:
[1] = test system: HUVECs co-cultured with AML cells; experiment: eNOS phosphorylation in HUVECs co-cultured with AML cells; assay type: cell-based; design: dose or concentration left out as unconfirmed
luc-MV4.11 cells = experiment: MV4.11 AML model survival; assay type: in vivo, NSG mice; conditions: 40 mg/kg Compound A i.p., 100 mg/kg venetoclax oral, 14 days once daily
Procedure: To evaluate the efficacy of targeting E-selectin with Compound A in combination with venetoclax, an in vivo MV4.11 AML model was employed (FIG. 16).
luc-MV4.11 cells (5×10^6 cells/mouse) were transplanted into NSG mice. Mice were divided into four groups: vehicle treatment only; 40 mg/kg of Compound A (intraperitoneal, 14 day once daily); 100 mg/kg venetoclax (oral, 14 days once daily), and a combination of 40 mg/kg Compound A and 100 mg/kg venetoclax. Drug treatment was initiated on day 10 post-transplantation.

[2] = test system: PDX-AML (Ven/HMA-resistant); experiment: PDX-AML (Ven/HMA-resistant) model, FLT3-ITD, NRAS, GATA2 mutations; assay type: in vivo, NSG mice
Excerpt: To evaluate the efficacy of targeting E-selectin with Compound A to selectively eradicate leukemia cells resistant to venetoclax/HMA therapy in the bone marrow niche, an […] PDX-AML model derived from an AML patient harboring FLT3-ITD, NRAS, and GATA2 mutations who initially responded to venetoclax/HMA therapy and then relapsed was employed (FIG. 1). The model reflects the present situation for many elderly AML patients: initial sensitivity, followed by resistance to venetoclax/HMA and relapse.
Patient-derived PDX cells from an AML patient (2.5×10^6 cells/mouse) were transplanted via tail vein into NSG mice. Once AML cells began to engraft, mice were divided into four groups: vehicle treatment only; 40 mg/kg of Compound A; 50 mg/kg venetoclax+5.5 mg/kg 5-azacitidine; and a combination of 40 mg/kg Compound A and 50 mg/kg venetoclax+5.5 mg/kg 5-azacitidine. Drug treatment was performed from day 60 to day 82 post-transplantation.
Leukemia progression and tumor burden were evaluated weekly during the treatment period (for 22 days) by determining the frequency and absolute number of human CD45^+ cells in peripheral blood using flow cytometry analysis. The synergistic effects of the combinatorial treatment on AML-PDX mouse survival were determined by Kaplan-Meier analysis (FIG. 2). […] The median survival of the vehicle control, Compound A, venetoclax/HMA, and combination-treated (Compound A+venetoclax/HMA) groups of mice was 86, 91, 81.5, and 106.5 days, respectively.
At the time when all of the control group of mice were moribund (after 23 days of treatment), 3 mice per group were sacrificed for single cell proteomics (CyTOF) and immunohistochemistry analysis.

human MSC = experiment: CD44 surface expression in MSC exposed to soluble E-selectin; assay type: cell-based; conditions: MSC in vitro
Excerpt: To determine if E-selectin has indispensable effects in bone marrow niche component cells, healthy donor derived-mesenchymal stroma cells (MSC) were exposed to increasing concentrations of E-selectin. […] Abrogation of E-selectin binding by Compound A diminished CD44 expression in vitro.

KG1 cells = experiment: Global DNA methylation (5-mC) ELISA in KG1 cells; conditions: 100 nM 5-AZA, 96 hours (untreated 0.33%)
Procedure: Prior to assessing the effect of 5-AZA on specific gene expression, its effect on global DNA methylation was assessed by specifically measuring levels of 5-methylcytosine (5-mC) in a colorimetric ELISA-like reaction. DNA was isolated from cell pellets using a DNA Isolation Kit for Cells and Tissues (Roche Catalog No. 11 814 770 001). DNA was quantified using a DNA Quantification Assay Kit (BioVision Catalog No. K539-200). Global DNA methylation was measured using the MethylFlash™ Global DNA Methylation (5-mC) ELISA Easy Kit (EpiGentek Catalog No. P-1030).
DNA was isolated and purified from cell pellets and evaluated for 5-mC levels.

Structure (SMILES)	phosphorylation of the enzyme eNOS [1]	median survival time (MST) (luc-MV4.11 cells)	median survival ([2]; 40 mg/kg Compound A, 50 mg/kg venetoclax+5.5 mg/kg 5-azacitidine, day 60 to 82)	anti-leukemia efficacy of venetoclax/HMA ([2]; CyTOF, in vivo administration)	leukemia cell infiltration in bone marrow, spleen, lung, and liver ([2]; histology, Compound A only compared to normal control mice)	mobilization of human AML cells ([2]; mouse, in vivo)	CD44 expression (human MSC)	level of 5-mC (KG1 cells)
CCC1CC(C(=O)NCCNC(=O)CCOCCOCCOCCOCCOCCOCCOCCOCCOCCOCCOCCOC)C[C@@H](O[C@@H]2OC(CO)[C@H](O)C(O[C@@H](CC3CCCCC3)C(=O)O)C2NC(C)=O)[C@@H]1OC1O[C@@H](C)[C@H](O)C(O)[C@@H]1O (some centres unmarked) [Compound A]	attenuated	39 days	91 days	enhanced	increased	mobilized	diminished	
Nc1ncn([C@@H]2O[C@H](CO)[C@@H](O)[C@H]2O)c(=O)n1 [5-azacitidine]								0.12%
